Measurements as given in patent US20030031690A1, “Cosmetic composition for preventing and treating acnes containing cryptotanshinone” (priority 2001, published 2003).
In brackets after ≈: the same amount, converted by molar mass. Each block holds one compound with its values, some of them ahead of it.

What was measured:
[1] = tested on: Propionibacterium acnes; assay: Antibacterial ability against Propionibacterium acnes (MIC on BHI solid flat medium); type: cell-based; details: P. acnes, three days
Source text: To measure the antibacterial ability of cryptotanshinone against Propionibacterium acnes (P. acnes hereinafter), P. acnes kept in a cold storage in original state was cultivated on a BHI (Brain Heart Infusion) solid flat medium three days before the beginning of experiment. On the day of experiment, the P. acnes previously cultivated was inoculated into BHI solid flat medium containing the predetermined concentration of cryptotanshinone. Three days later after that, the minimum inhibition concentration (MIC) is obtained by measuring the number of P. acnes. The experiment was conducted in the same manner as experimental example 5, except for using benzoyl peroxide instead of cryptotanshinone.

[2] = tested on: ears of mice; assay: Anti-inflammation effect, arachidonic acid-induced ear edema; type: in vivo; details: for Thickness of ear After applying agent / Thickness of ear Before applying agent: agent 0.3% in ethanol once a day for four days, average of 7 mice; for Thickness of ear After applying agent: 2 mg/ear arachidonic acid, one hour after; for Restraint rate: agent 0.3% in ethanol, (A − B)/A × 100 against comparative group
Description: When inflammation is generated due to P. acnes, become more serious. Accordingly, the effect of alleviating the inflammation due to acne is verified by assessing the anti-inflammatory effect of cryptotanshinone. The experiment is conducted by a method using arachidonic acid (A. Crummey, G. P. Harper, E. A. Boyle and F. R. Mangan. Inhibition of arachidonic acid-induced ear oedema as a model for assessing topical anti-inflammatory compound. Agents and Actions 1987; 20:69-76).
After washing both ears of mice with ethanol before applying the agent, 201 o f cryptotanshinone having a concentration of 0.3% is applied to the ears of mice belonging to an agent application group once a day for four days, while 201 o f ethanol is applied to mice in a comparative group. One hour after the last application, ethanol is applied to the left ears of mice and 2 mg/ear of arachidonic acid is applied to the right ears of mice. One hour after that, the degree of ear edema is repeatedly measured by micrometer three times for each ear. The left ears of mice in the agent application group are used as a comparative group for measuring the degree of inflammation being induced by the agent.
The anti-inflammatory effect is assessed by the degree that the edema in the agent application group is restrained by cryptotanshinone on the basis of the comparative group to which arachidonic acid is applied. The number of mice used for each group is seven and the value is an average of those of 7 mice.
The experiments are conducted in the same manner as experimental example 6, except for respectively using stearyl glycyrrhetinate and indomethacin instead of cryptotanshinone.

[3] = tested on: 5 α-reductase; assay: Inhibition of 5 α-reductase (conversion of 3H-testosterone to dihydrotestosterone, HPLC); type: biochemical
Description: 30 l of Phosphate Buffered Saline (PBS/pH 6.6) is mixed with 101 of dithiothreitol, NADPH, and testosterone, into which radioactive isotopes are combined (3H-1, 2, 4, 5, 6, 7-testosterone), 401 of extract liquid of enzyme 5 α-reductase, and 20 l of cryptotanshinone having 0.001% of concentration. Next, the composition mentioned above is left at the normal temperature for 10 minutes so that the materials in the composition react to each other, and then the amount of converted dihydrotestosterone are measured by HPLC and a measuring instrument of radioisotope.
Inhibition rate (%)=[…].
The experiments are conducted in the same manner as experimental example 1, except for changing the concentration of cryptotanshinone as described in Table 1.

- MIC ([1]; Cutibacterium acnes, 72 h): 500 to 1000 µg/mL (≈ 2.06 to 4.13 mM)
Compound: O=C(OOC(=O)c1ccccc1)c1ccccc1 [Benzoyl peroxide, reference compound]

Compound: COc1ccc2c(c1)c(CC(=O)O)c(C)n2C(=O)c1ccc(Cl)cc1 [Indomethacin, indomethacin]
- Thickness of ear After applying agent [2]: 391
- Thickness of ear Before applying agent [2]: 273
- Restraint rate [2]: 46.6%

Compound: CCCCCCCCCCCCCCCCCCOC(=O)[C@@]1(C)CC[C@]2(C)CC[C@]3(C)C(=CC(=O)[C@@H]4[C@@]5(C)CC[C@H](O)C(C)(C)[C@@H]5CC[C@]43C)[C@@H]2C1 [Stearyl Glycyrrhetinate, stearyl glycyrrhetinate]
- Thickness of ear After applying agent [2]: 454
- Thickness of ear Before applying agent [2]: 268
- Restraint rate [2]: 15.8%

Compound: Cryptotanshinone
- Thickness of ear After applying agent [2]: 437
- Thickness of ear Before applying agent [2]: 271
- Restraint rate [2]: 24.9%
- Inhibition rate ([3]; concentration of cryptotanshinone 0.001%): 19.1%
- Inhibition rate ([3]; concentration of cryptotanshinone 0.01%): 36.0%
- Inhibition rate ([3]; concentration of cryptotanshinone 0.1%): 45.9%
- Inhibition rate ([3]; concentration of cryptotanshinone 1.0%): 100%
- MIC (mole) [1]: 100-500 ppm
